From ChEMBL document CHEMBL1201862, “PubChem BioAssay data set” (2004)
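Tested at 5 concentrations; 48 h exposure; 96-well plates; endpoints linearly interpolated, else capped at highest concentration. GI50 marks 50% less growth.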 The source made the active and inactive calls. Rule as the data show it: active = GI50 up to about 1.1 µM and inactive = higher.

Experiments:
Assay in all cases: NCI anticancer screen, dose series, 48 h
CAKI-1 = tested on: CAKI-1
MDA-N = tested on: MDA-N
HL-60 = tested on: HL-60
T47D = tested on: T47D
Hs-578T = tested on: Hs-578T
SF-539 = tested on: SF-539
NCI-H23 = tested on: NCI-H23
CCRF-CEM = tested on: CCRF-CEM
ACHN = tested on: ACHN
SR = tested on: SR
HCT-15 = tested on: HCT-15
HCC 2998 = tested on: HCC 2998
SK-MEL-5 = tested on: SK-MEL-5
RXF 393 = tested on: RXF 393
DU-145 = tested on: DU-145
Malme-3M = tested on: Malme-3M
MDA-MB-231 = tested on: MDA-MB-231
SN12C = tested on: SN12C
NCI-H460 = tested on: NCI-H460

| Compound | GI50 (CAKI-1) | GI50 (MDA-N) | GI50 (HL-60) | GI50 (T47D) | GI50 (Hs-578T) | GI50 (SF-539) | GI50 (NCI-H23) | GI50 (CCRF-CEM) | GI50 (ACHN) | GI50 (SR) | GI50 (HCT-15) [µM] | GI50 (HCC 2998) | GI50 (SK-MEL-5) | GI50 (RXF 393) | GI50 (DU-145) | GI50 (Malme-3M) | GI50 (MDA-MB-231) | GI50 (SN12C) | GI50 (NCI-H460) |
| --- | --- | --- | --- | --- | --- | --- | --- | --- | --- | --- | --- | --- | --- | --- | --- | --- | --- | --- | --- |
| COC(=O)[C@@H](NS(=O)(=O)CC12CCC(CC1)C2(C)C)C(C)(C)C | > 100 µM (inactive) | > 100 µM (inactive) | > 100 µM (inactive) | > 100 µM (inactive) | > 100 µM (inactive) | > 100 µM (inactive) | > 100 µM (inactive) | > 100 µM (inactive) | > 100 µM (inactive) | 23.3 µM (inactive) | > 100 | > 100 µM (inactive) | > 100 µM (inactive) | 44.4 µM (inactive) | > 100 µM (inactive) | > 100 µM (inactive) | > 100 µM (inactive) | > 100 µM (inactive) | > 100 µM (inactive) |
| N#CCCCC[N+]12CN3CN(CN(C3)C1)C2 | > 100 µM (inactive) | > 100 µM (inactive) | > 100 µM (inactive) | > 100 µM (inactive) | > 100 µM (inactive) | 22.6 µM (inactive) | > 100 µM (inactive) | 64 µM (inactive) | > 100 µM (inactive) | 30.8 µM (inactive) | > 100 | > 100 µM (inactive) | > 100 µM (inactive) | > 100 µM (inactive) | > 100 µM (inactive) | > 100 µM (inactive) | > 100 µM (inactive) | > 100 µM (inactive) | > 100 µM (inactive) |
| COc1cc(-c2oc3c(OC)cc(OC)c(O)c3c(=O)c2OC)cc(OC)c1OC | 14.4 µM (inactive) | > 100 µM (inactive) | > 100 µM (inactive) | 3.76 µM (inactive) | 2.93 µM (inactive) | 8.57 µM (inactive) | 36.3 µM (inactive) |  | 8.49 µM (inactive) | > 100 µM (inactive) |  | > 100 µM (inactive) | 20.7 µM (inactive) | 8.28 µM (inactive) | 32.7 µM (inactive) | 5.97 µM (inactive) | 2.84 µM (inactive) | > 100 µM (inactive) | 4.47 µM (inactive) |
| Cc1ccc(NC(=O)/C(=N\NC(N)=O)c2c(O)c3ccccc3[nH]c2=O)cc1 | > 100 µM (inactive) | > 100 µM (inactive) | > 100 µM (inactive) | > 100 µM (inactive) | > 100 µM (inactive) | > 100 µM (inactive) | > 100 µM (inactive) | > 100 µM (inactive) | > 100 µM (inactive) | > 100 µM (inactive) | > 100 | > 100 µM (inactive) | > 100 µM (inactive) | > 100 µM (inactive) | > 100 µM (inactive) |  | > 100 µM (inactive) | > 100 µM (inactive) | > 100 µM (inactive) |
| COC(=O)[C@]12CC[C@H]3CC[C@H]([C@H]31)[C@H](c1ccccc1)N2 | 17.7 µM (inactive) | 17.9 µM (inactive) | 19.1 µM (inactive) | 16.4 µM (inactive) | 23 µM (inactive) | 16.5 µM (inactive) | 16.8 µM (inactive) | 21.4 µM (inactive) | 17.6 µM (inactive) | 12.1 µM (inactive) | 18.2 | 13.5 µM (inactive) | 14.7 µM (inactive) | 14.2 µM (inactive) | 18.5 µM (inactive) |  | 16.3 µM (inactive) | 15.7 µM (inactive) | 15.9 µM (inactive) |
| CC1=NC(=O)C(C)(c2ccccc2)N1CCc1ccccc1 (centres undefined) | > 100 µM (inactive) | 36.3 µM (inactive) | 51.5 µM (inactive) | 22.3 µM (inactive) | > 100 µM (inactive) | 85.3 µM (inactive) | > 100 µM (inactive) | 36.2 µM (inactive) | > 100 µM (inactive) | 32 µM (inactive) | 35.2 | 27.4 µM (inactive) | 27 µM (inactive) | 24.7 µM (inactive) | > 100 µM (inactive) | > 100 µM (inactive) | 67.6 µM (inactive) | > 100 µM (inactive) |  |
| CC1=C(C)C2(C#N)C(=O)N3C(=NC(c4ccco4)NC3c3ccco3)C2(C#N)C(c2ccco2)N1 (centres undefined) | > 100 µM (inactive) | > 100 µM (inactive) | > 100 µM (inactive) | > 100 µM (inactive) | > 100 µM (inactive) |  | > 100 µM (inactive) | > 100 µM (inactive) | > 100 µM (inactive) | > 100 µM (inactive) | > 100 | > 100 µM (inactive) | > 100 µM (inactive) | > 100 µM (inactive) | > 100 µM (inactive) | > 100 µM (inactive) | > 100 µM (inactive) | > 100 µM (inactive) | > 100 µM (inactive) |
| Nc1c([N+](=O)[O-])cc2c3c(cccc13)CC2 | > 100 µM (inactive) | > 100 µM (inactive) | 74.6 µM (inactive) | 30.1 µM (inactive) | > 100 µM (inactive) | 31.5 µM (inactive) | 55 µM (inactive) | 90.6 µM (inactive) | > 100 µM (inactive) | 25.4 µM (inactive) | 65.9 | > 100 µM (inactive) | 53.2 µM (inactive) | 23.1 µM (inactive) | 46 µM (inactive) |  | 38.9 µM (inactive) | 62.8 µM (inactive) | 54.1 µM (inactive) |
| O=C(CC(C(=O)c1cccs1)c1ccc2c(c1)OCO2)c1ccccc1 (centres undefined) | > 100 µM (inactive) | > 100 µM (inactive) | 58.9 µM (inactive) | 52.7 µM (inactive) | > 100 µM (inactive) | > 100 µM (inactive) | > 100 µM (inactive) |  | > 100 µM (inactive) | 70.1 µM (inactive) | > 100 | > 100 µM (inactive) | > 100 µM (inactive) | > 100 µM (inactive) | > 100 µM (inactive) | > 100 µM (inactive) | > 100 µM (inactive) | > 100 µM (inactive) | 46.7 µM (inactive) |
| CCCCCCCCCCCC[C@@H](O)[C@H]1CC[C@H]([C@H](O)CC[C@H](O)[C@@H]2CC[C@@H](CCCCCCCC3=C[C@H](C)OC3=O)O2)O1 | > 50 µM (inactive) | 6.47 µM (inactive) | 1.74 µM (inactive) | > 50 µM (inactive) | 3.94 µM (inactive) | > 50 µM (inactive) | > 18.1 µM (inactive) | > 38.4 µM (inactive) | > 50 µM (inactive) | 1.27 µM (inactive) | > 50 | > 50 µM (inactive) |  | > 50 µM (inactive) | 7.55 µM (inactive) | > 50 µM (inactive) | > 50 µM (inactive) | 3.99 µM (inactive) | 2.54 µM (inactive) |
| Cc1cccc(C)c1NC(=S)NC=C1C(=O)c2ccccc2C1=O | 17.8 µM (inactive) | 9.14 µM (inactive) | 2.45 µM (inactive) | 6.17 µM (inactive) | 10.5 µM (inactive) | 11.2 µM (inactive) | 16.6 µM (inactive) | 5.18 µM (inactive) | 5.19 µM (inactive) | 2.22 µM (inactive) | 7.35 | 5.86 µM (inactive) | 7.91 µM (inactive) | 4.3 µM (inactive) | 12.1 µM (inactive) |  | 19.5 µM (inactive) | 9.42 µM (inactive) | 3.98 µM (inactive) |
